What was measured:
[1] = system: C5a-mediated AKT phosphorylation; assay: Cell based ELISA: Akt/PKB phosphorylation in Raw 264-7 macrophages after stimulation with C5a; conditions: Mus musculus, RAW264.7, compound at 1 μM, 50 nM C5a, read-out: percentage of inhibition of C5a-mediated AKT phosphorylation
Procedure: b) Cell Based ELISA to Monitor PI3K Inhibition:
Measurement of Akt/PKB phosphorylation in macrophages after stimulation with C5a: Raw 264: Raw 264-7 macrophages (cultured in DMEM-F12 medium containing 10% Fetal Calf serum and antibiotics) are plated at 20'000 cells/well in a 96 MTP 24 h before cell stimulation. Previous to the stimulation with 50 nM of Complement 5a (C5a; which is a well known chemokine which stimulates the used cells) during 5 minutes, Cells are serum starved for 2 h, and pretreated with inhibitors for 20 minutes. After stimulation cells are fixed in 4% formaldehyde for 20 minutes and washed 3 times in PBS containing 1% Triton X-100 (PBS/Triton). Endogenous peroxidase is blocked by a 20 minutes incubation in 0.6% H2O2 and 0.1% Sodium Azide in PBS/Triton and washed 3 times in PBS/Triton. Cells are then blocked by 60 minutes incubation with 10% fetal calf serum in PBS/Triton. Next, phosphorylated Atk/PKB is detected by an overnight incubation at 4° C. with first antibody (anti phospho Serine 473 Akt 1HC, Cell Signaling) diluted 800-fold in PBS/Triton, containing 5% bovine serum albumin (BSA). After 3 washes in PBS/Triton, cells are incubated for 60 minutes with a peroxidase conjugated goat-anti-rabbit antibody (1/400 dilution in PBS/Triton, containing 5% BSA), washed 3 times in PBS/Triton, and 2 times in PBS and further incubated in 100 μl of substrate reagent solution (R&D) for 20 minutes.
The reaction is stopped by addition of 50 μl of 1 M H2SO4 and absorbance is read at 450 nm.
The values indicated reflect the percentage of inhibition of AKT phosphorylation as compared to basal level. Said values show a clear effect of the azolidinone-vinyl fused-benzene compounds on the activation of AKT phosphorylation in macrophages.

[2] = biological target: Human recombinant GST-PI3Kγ (Homo sapiens, UniProt P48736); assay: High Throughput PI3K Lipid Kinase Assay (scintillation proximity assay); assay type: biochemical
Sequence of Human recombinant GST-PI3Kγ (P48736 whole entry): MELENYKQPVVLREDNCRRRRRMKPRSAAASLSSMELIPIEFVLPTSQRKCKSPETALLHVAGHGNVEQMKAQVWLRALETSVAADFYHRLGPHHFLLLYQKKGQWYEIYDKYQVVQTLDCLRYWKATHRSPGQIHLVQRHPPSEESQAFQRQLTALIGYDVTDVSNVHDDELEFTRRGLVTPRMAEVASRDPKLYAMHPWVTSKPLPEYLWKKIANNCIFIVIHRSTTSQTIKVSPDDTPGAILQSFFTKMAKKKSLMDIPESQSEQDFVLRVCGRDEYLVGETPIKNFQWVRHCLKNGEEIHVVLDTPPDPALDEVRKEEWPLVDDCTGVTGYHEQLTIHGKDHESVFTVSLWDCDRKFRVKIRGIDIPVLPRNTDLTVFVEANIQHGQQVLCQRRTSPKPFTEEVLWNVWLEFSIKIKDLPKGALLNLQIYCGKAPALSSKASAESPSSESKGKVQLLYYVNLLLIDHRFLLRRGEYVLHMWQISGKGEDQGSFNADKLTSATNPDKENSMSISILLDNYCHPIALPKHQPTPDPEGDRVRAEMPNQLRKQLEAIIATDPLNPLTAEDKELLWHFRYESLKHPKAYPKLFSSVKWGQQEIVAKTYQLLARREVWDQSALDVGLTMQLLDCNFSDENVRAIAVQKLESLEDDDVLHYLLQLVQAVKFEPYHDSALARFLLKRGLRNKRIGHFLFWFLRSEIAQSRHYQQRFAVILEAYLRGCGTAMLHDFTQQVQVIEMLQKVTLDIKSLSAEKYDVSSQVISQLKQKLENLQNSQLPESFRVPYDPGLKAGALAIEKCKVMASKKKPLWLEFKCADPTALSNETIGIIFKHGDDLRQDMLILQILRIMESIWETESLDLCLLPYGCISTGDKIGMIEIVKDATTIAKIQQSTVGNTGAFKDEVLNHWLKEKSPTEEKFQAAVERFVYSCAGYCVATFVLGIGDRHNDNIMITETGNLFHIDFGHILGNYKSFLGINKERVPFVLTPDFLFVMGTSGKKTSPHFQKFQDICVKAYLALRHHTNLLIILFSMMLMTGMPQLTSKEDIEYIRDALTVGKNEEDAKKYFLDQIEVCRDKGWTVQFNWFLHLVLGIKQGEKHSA
Procedure: a) High Throughput PI3K Lipid Kinase Assay (Binding Assay):
The assay combines the scintillation proximity assay technology (SPA, Amersham) with the capacity of neomycin (a polycationic antibiotic) to bind phospholipids with high affinity and specificity. The Scintillation Proximity Assay is based on the properties of weakly emitting isotopes (such as ^3H, ^125I, ^33P). Coating SPA beads with neomycin allows the detection of phosphorylated lipid substrates after incubation with recombinant PI3K and radioactive ATP in the same well, by capturing the radioactive phospholipids to the SPA beads through their specific binding to neomycin.
To a 384 wells MTP containing 5 μl of the test compound of formula (I) (solubilized in 6% DMSO; to yield a concentration of 100, 30, 10, 3, 1, 0.3, 0.1, 0.03, 0.01, 0.001 μM of the test compound), the following assay components are added. 1) 5 μl (58 ng) of Human recombinant GST-PI3Kγ (in Hepes 40 mM, pH 7.4, DTT 1 mM and ethyleneglycol 5%) 2) 10 μl of lipid micelles and 3) 10 μl of Kinase buffer ([^33P]γATP 45 μM/60 nCi, MgCl2 30 mM, DTT 1 mM, β-Glycerophosphate 1 mM, Na3VO4 100 μM, Na Cholate 0.3%, in Hepes 40 mM, pH 7.4). After incubation at room temperature for 180 minutes, with gentle agitation, the reaction is stopped by addition of 60 μl of a solution containing 100 μg of neomycin-coated PVT SPA beads in PBS containing ATP 10 mM and EDTA 5 mM. The assay is further incubated at room temperature for 60 minutes with gentle agitation to allow binding of phospholipids to neomycin-SPA beads. After precipitation of the neomycin-coated PVT SPA beads for 5 minutes at 1500×g, radioactive PtdIns(3)P is quantified by scintillation counting in a Wallac MicroBeta™ plate counter.
The values indicated in respect of PI3Kγ refer to the IC50 (μM), i.e. the amount necessary to achieve 50% inhibition of said target. Said values show a considerable potency of the azolidinone-vinyl fused-benzene compounds with regard to PI3Kγ.

[3] = in vivo; cited from earlier work
neutrophil = conditions: cited from earlier work
CK2 protein kinase = CK2 protein kinase (Homo sapiens, UniProt P68400); conditions: cited from earlier work
Sequence of CK2 protein kinase (P68400 whole entry): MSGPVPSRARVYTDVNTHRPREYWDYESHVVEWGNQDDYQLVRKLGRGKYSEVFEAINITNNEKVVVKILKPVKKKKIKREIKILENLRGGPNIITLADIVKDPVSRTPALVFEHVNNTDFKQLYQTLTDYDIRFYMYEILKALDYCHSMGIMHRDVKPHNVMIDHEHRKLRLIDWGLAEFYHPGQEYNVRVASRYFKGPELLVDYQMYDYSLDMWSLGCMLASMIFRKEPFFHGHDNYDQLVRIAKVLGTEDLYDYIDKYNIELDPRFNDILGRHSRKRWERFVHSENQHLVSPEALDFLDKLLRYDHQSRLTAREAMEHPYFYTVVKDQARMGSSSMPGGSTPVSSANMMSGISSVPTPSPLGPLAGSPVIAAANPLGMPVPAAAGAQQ

Class I PI3-kinases = conditions: read-out: IC50 against each of these PI3-kinases; cited from earlier work
phospholipases = conditions: cited from earlier work

Row | IC50 [2] | Structure (SMILES) | inhibition at 1 µM [1] | other results
1 |  | O=C1NC(=O)/C(=C/c2ccc3c(c2)OCO3)S1 [Example 1, 5-(1,3-benzodioxol-5-ylmethylene)-1,3-thiazolidine-2,4-dione] | ~100% | 
2 |  | O=C1NC(=O)C(=Cc2ccc3ncnc(N4CCCCC4)c3c2)S1 [Example 19, 5-[(4-piperidin-1-ylquinazolin-6-yl)methylene]-1,3-thiazolidine-2,4-dione] | ~100% | 
3 | < 1000 nM | N=C1NC(=O)/C(=C/c2ccc3ncnc(N4CCCCC4)c3c2)S1 [Example 41, 2-Imino-5-(4-piperidine-quinazolin-6-ylmethylene)-thiazolidin-4-one] |  | 
4 | < 1000 nM | COc1ccccc1Cn1cnc2ccc(C=C3SC(=O)NC3=O)cc21 [Example 61, 5-{[1-(2-methoxybenzyl)-1H-benzimidazol-6-yl]methylene}-1,3-thiazolidine-2,4-dione] |  | 
5 | < 1000 nM | N=C1NC(=O)/C(=C/c2ccc3nccnc3c2)S1 [Example 66, 2-Imino-5-quinoxalin-6-ylmethylene-thiazolidin-4-one] | ~100% | 
6 | < 1000 nM | O=C1NC(=O)/C(=C/c2ccc3occ(/C=C/C(=O)N4CCCCC4)c3c2)S1 [Example 73, 5-[3-(3-Oxo-3-piperidin-1-yl-propenyl)-benzofuran-5-ylmethylene]-thiazolidine-2,4-dione] |  | 
7 | < 1000 nM | O=C1NC(=O)/C(=C/c2ccc3c(c2)N(Cc2ccccc2)C(=O)CO3)S1 [Example 103, 5-(4-Benzyl-3-oxo-3,4-dihydro-2H-benzo[1,4]oxazin-6-ylmethylene)-thiazolidine-2,4-dione] |  | 
8 | < 1000 nM | O=C1NC(=O)/C(=C/c2ccc3nsnc3c2)S1 [Example 107, 5-Benzo[1,2,5]thiadiazol-5-ylmethylene-thiazolidine-2,4-ione] | ~100% | 
9 | < 1000 nM | COC(=O)c1cc2ccc(/C=C3\SC(=O)NC3=O)cc2o1 [Example 110, 5-(2-Carboxymethyl-benzofuran-6-ylmethylene)-thiazolidine-2,4-dione] |  | 
10 |  | CC(C)(C)c1cc(/C=C2\SC(=N)NC2=O)cc2c1OCC2(C)C [JA] |  | activity in a paw swelling assay [3]: inactive
11 |  | O=c1cc(N2CCOCC2)oc2c(-c3ccccc3)cccc12 [LY294002] |  | neutrophil migration (neutrophil): block; superoxide release (neutrophil): block; IC50 (CK2 protein kinase): 5000 to 10000 nM; IC50 (Class I PI3-kinases): 15000 to 20000 nM; inhibitory activity on phospholipases (phospholipases): some inhibitory activity

Reference: US7846925B2, “Azolidinone-vinyl fused-benzene derivatives” (Merck Serono SA, priority 2002, dated 2010)
